Here are results for one substance from patent publication US11135163B2, “Peptide hydrogel properties and its applications” (Kansas State University Research Foundation, priority 2014, dated 2021).

One assay concerns Rat ESCs and iPSCs. The assay can be described thus: Stem cell 3D culture in h9e hydrogel. It counts as cell-based. The text has this:
Rat PSCs: Animal use was approved by the KSU Institutional Animal Care and Use Committee (protocol #3168). Rat ESCs were derived in-house from Dark Agouti rats and characterized following the methods described in previous studies. Low passage ESCs were thawed, expanded one passage in 2D on MEF feeders, and then used in these experiments. Rat iPSCs were generated from Fischer 344 rat embryonic fibroblasts using a mouse OKSM STEMCCA lentiviral reprogramming vector according to the manufacturer's protocol (Millipore, SCR513).
3D cell culture: We adapted the techniques used previously to encapsulate breast cancer cells in 3D described in previous studies. This was done by using the regular h9e peptide hydrogel (1% wt=6 mM) in an aqueous solution. The peptide hydrogel-medium was prepared by directly mixing the aqueous h9e peptide solution with concentrated 2i plus LIF medium at 1:1 ratios for a final peptide concentration of 3 mM (600 Pa). […] Specifically, medium was made at 1.2× concentration for the 1:5 dilution, […] for the […] and 2× for the 1:1 dilution in the three h9e hydrogel concentrations. After mixing, the cells were added and the mixture was immediately added to the dish slowly to avoid air bubbles. The plates were then incubated for 30 min at 37° C. to permit gelation. To feed, 1× concentration 2i plus LIF medium was added slowly to the top of the hydrogel. To pass, the media was pipetted up and down by adding 1-2 ml of PBS more forcefully to shear the gel, and the liquefied contents were then added to a tube and diluted to a concentration that was below that which permitted gelation. The colonies were pelleted by low speed centrifugation (100×g for 5 min at room temperature), washed with calcium and magnesium free PBS, and then trypsinized to single cells by addition of trypsin EDTA for 5 min. Enzymatic reaction was terminated by dilution with PBS and 2 washing steps. The PSCs were suspended in a small volume of medium, added to the 1× hydrogel-medium solution, and re-plated at the desired concentration. Alkaline phosphatase staining, Immunofluorescence staining: Karyotyping, Embryoid body formation, Gene expression analysis were performed to determine the differentiation properties.

The test system of a further assay is Male Wistar rats. The assay can be described thus: In vivo hemostatic efficiency, cut rat tail model. The following applies: all percent concentrations of h9e peptide solution. An excerpt:
Similar to the method used by Mortazavi et al., in this study 30 rats were divided randomly into 5 groups of 6 animals each. […] Male Wistar rats were kept on AIN-93 diet with free access to water, under 12-h light-dark cycles, for one week. Before excising the tail, the rats were first anesthetized and maintained with 3% isoflurane until the eyelid closure reflex was lost and there was no reactive reflex in response to a toe pinch. In order to maintain an appropriate body temperature during anesthesia, a circulating water blanket was used at a temperature of 41-43° C. Following anesthesia, animals' tails were cut off at a thickness of 5 mm using a pair of mortuary scissors. The cut tail was immediately inserted into a small vial containing the appropriate treatment. The 1st group received topical saline solution (negative control) and the 2nd to 4th groups received topical h9e peptide solution at 1, 3, or 5 wt %, respectively. The 5th group received a topical application of a commercially available hemostatic agent as a positive control (Moore Medical CELOX* Hemostatic Granules). After treatment with above mentioned agents, the volume of blood lost was measured using a scaled test-tube. The bleeding time was measured using a stop watch. At the conclusion of the study, the rats were sacrificed using a CO2 chamber.

Another assay concerns HeLa cells. As to the kind of experiment: HeLa cell viability (CCK-8) in 3D h9e hydrogel. The note with it: same amount of camptothecin. It counts as cell-based. Here is the method: Cell culture and drug efficacy/diffusion tests: HeLa cells were grown in the hydrogel in 3D. Aliquots of HeLa cells solution were added into […] hydrogel with DMEM containing 10% FBS with a final peptide concentration of 0, 0.25, 0.5 and 1 wt %. 100 μl of cell mixture solution (3×10^4 cells per well) was seeded into a 96-well culture plate (Becton Dickinson Labware, Franklin Lakes, N.J.) and placed in an incubator (Nuair, Playmouth, Minn.) in a humidified 5% CO2 atmosphere at 37° C. for about 30 min. After complete hydrogelation, 10 μl of DMEM containing 0, 50 uM, 100 uM, or 200 uM camptothecin was added on top of the hydrogel to obtain camptothecin concentrations of 0 μM, 3.125 μM, 6.25 μM, and 12.5 μM, respectively, upon total diffusion in the hydrogel. Then, 50 ul of DMEM was carefully added to the top of the hydrogel to prevent drying during long-term incubation. All measurements were made at least in triplicate, and the plates were incubated for 3 days. A CCK-8 assay was used to determine cell viability after each treatment. 10 μL of CCK solution was added to each well. After 4 h of incubation, the absorbance at 450 nm was collected on a microplate reader (mQuant, Bio-Tek) and corrected by subtracting the background signal from a wall containing only 160 ul DMEM containing 10% FBS. […]

With “H-FLIVIGSIIGPGGDGPGGD-NH2 [h9e, FLIVIGSIIGPGGDGPGGD]”, the “serial passages maintained in the undifferentiated state (Oct4, Nanog, Sox2, SSEA-1 staining)” value in the assay on Rat ESCs and iPSCs (3 mM h9e hydrogel, 3D culture) is on record as “at least 25 serial passages”. In the assay with Rat ESCs and iPSCs (3 mM hydrogel), the “proliferation of encapsulated rat pluripotent stem cells” value was “proliferated well”. For the same substance, in the assay on Rat ESCs and iPSCs (3D culture in hydrogel), the “alkaline phosphatase staining after more than 25 passages” value is given as “not affected”. Besides, the “spontaneous differentiation on the colony edges” value in the assay on Rat ESCs and iPSCs (rat ESC or rat iPSC cultures) is given as “never observed”. In the assay on Male Wistar rats, the “control of hemorrhage versus sterile saline negative control” value was “effective in controlling hemorrhage”. Also, the “HeLa cell viability across h9e hydrogel concentrations” value in the assay on HeLa cells is reported as “cell viability was comparable”.
